# From paper PMC6987120, “Structural insights into ATP hydrolysis by the MoxR ATPase RavA and the LdcI-RavA cage-like complex” (Communications Biology, 2020)
# Assays:
# LdcI–RavA complex [1] = target: T1, LdcI–RavA complex (Escherichia coli, UniProt P31473); assay: ATPase assay, inorganic phosphate by Fiske and Subbarow; type: biochemical; settings: 2 mM ATP, 10 mM MgCl2, 50 mM MES/Tris pH 5-9, 25 °C; three-fold molar excess of LdcI
# T1 construct: purified RavA and LdcI mixed in vitro; LdcI expressed in a ppGpp-null E. coli MG1655 host; with Inducible lysine decarboxylase
# T1 sequence (P31473 whole entry): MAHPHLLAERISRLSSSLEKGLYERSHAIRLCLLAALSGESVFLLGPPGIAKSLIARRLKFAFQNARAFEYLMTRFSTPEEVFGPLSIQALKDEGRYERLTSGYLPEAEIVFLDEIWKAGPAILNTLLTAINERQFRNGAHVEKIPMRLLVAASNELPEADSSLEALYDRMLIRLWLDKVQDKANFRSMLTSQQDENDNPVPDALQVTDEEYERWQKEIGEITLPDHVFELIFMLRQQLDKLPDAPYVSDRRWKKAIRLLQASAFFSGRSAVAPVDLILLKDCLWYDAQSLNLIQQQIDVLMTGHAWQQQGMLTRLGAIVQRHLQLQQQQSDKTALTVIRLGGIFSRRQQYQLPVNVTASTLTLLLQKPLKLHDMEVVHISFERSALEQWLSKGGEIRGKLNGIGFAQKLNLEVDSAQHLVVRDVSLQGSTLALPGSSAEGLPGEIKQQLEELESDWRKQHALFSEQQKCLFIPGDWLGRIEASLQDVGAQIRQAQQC
# T1 sequence (P0A9H3 whole entry partner): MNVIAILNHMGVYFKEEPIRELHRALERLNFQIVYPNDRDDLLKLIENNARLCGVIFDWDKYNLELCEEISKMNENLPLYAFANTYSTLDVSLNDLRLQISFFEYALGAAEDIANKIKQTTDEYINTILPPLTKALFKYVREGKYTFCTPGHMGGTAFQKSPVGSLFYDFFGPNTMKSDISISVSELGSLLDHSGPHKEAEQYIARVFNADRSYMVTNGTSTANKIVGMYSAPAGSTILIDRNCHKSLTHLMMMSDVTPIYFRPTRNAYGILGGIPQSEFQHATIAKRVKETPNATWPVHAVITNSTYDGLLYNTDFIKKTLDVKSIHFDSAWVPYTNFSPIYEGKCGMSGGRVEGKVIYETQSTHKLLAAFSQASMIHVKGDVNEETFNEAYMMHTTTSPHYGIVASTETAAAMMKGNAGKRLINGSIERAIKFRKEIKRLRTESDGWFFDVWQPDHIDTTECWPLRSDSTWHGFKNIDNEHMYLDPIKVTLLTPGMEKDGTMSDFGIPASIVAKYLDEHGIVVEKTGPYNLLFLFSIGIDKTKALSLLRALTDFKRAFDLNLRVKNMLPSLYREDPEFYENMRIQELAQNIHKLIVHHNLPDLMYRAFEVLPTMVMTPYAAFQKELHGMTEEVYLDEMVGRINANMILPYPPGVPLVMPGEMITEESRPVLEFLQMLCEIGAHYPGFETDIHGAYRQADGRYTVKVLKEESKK
# RavA = target: T2, RavA (Escherichia coli, UniProt P31473); assay: cryo-EM, […] and […] A maps with flexible fitting; type: binding; settings: 1 mM ADP; intersubunit site; spiral with five ADP, closed ring with four ADP per hexamer
# T2 construct: homohexamer (6 copies), open spiral and C2-symmetric closed ring; site at the interface of adjacent monomers
# T2 sequence (P31473 whole entry): as the sequence (P31473 whole entry) above
# LdcI–RavA complex [2] = target: T1, LdcI–RavA complex; assay: cryo-EM, […] and […] A maps with flexible fitting; type: binding; settings: 2 mM ADP, 10 mM MgCl2, 0.1 mM PLP, pH 7.9; low local resolution of RavA
SMILES,"ATPase assay, inorganic phosphate by Fiske and Subbarow (LdcI–RavA complex [1])","cryo-EM, 5.96 and 6.94 A maps with flexible fitting (RavA)","cryo-EM, 7.6 and 7.8 A maps with flexible fitting (LdcI–RavA complex [2])"
Nc1ncnc2c1ncn2[C@@H]1O[C@H](COP(=O)(O)OP(=O)(O)OP(=O)(O)O)[C@@H](O)[C@H]1O [ATP],RavA is still able to efficiently hydrolyse ATP in the LdcI–RavA cage,–,–
Nc1ncnc2c1ncn2[C@@H]1O[C@H](COP(=O)(O)OP(=O)(O)O)[C@@H](O)[C@H]1O [ADP],–,The map contains densities attributed to five ADP molecules bound to the interface,Cryo-EM maps of the two classes of the LdcI–RavA complex in ADP-bound state
